Results taken from ChEMBL document CHEMBL6092203, “Discovery of Novel PROTAC-Based HPK1 Degraders with High Potency and Selectivity for Cancer Immunotherapy” (J Med Chem, 2024).
pIC50: −log10 of the molar value. Active and inactive are the calls of the source. No cut-off for these calls is given here.

Columns and labels:
[1] = Volume of distribution at steady state in Sprague-Dawley rat at 2 mg/kg, iv measured upto 24 hrs by LC-MS analysis; format: ADME, organism-based; conditions: in vivo, read-out: Vdss
[2] = biological target: T1, Protein cereblon/Mitogen-activated protein kinase kinase kinase kinase 1 (Homo sapiens, UniProt Q92918+Q96SW2); assay: PROTAC activity at CRBN/HPK1 in human Jurkat cells assessed as maximum degradation incubated for 24 hrs by Western blotting analysis; format: cell-based
T1 sequence (Q92918 whole entry, looked up): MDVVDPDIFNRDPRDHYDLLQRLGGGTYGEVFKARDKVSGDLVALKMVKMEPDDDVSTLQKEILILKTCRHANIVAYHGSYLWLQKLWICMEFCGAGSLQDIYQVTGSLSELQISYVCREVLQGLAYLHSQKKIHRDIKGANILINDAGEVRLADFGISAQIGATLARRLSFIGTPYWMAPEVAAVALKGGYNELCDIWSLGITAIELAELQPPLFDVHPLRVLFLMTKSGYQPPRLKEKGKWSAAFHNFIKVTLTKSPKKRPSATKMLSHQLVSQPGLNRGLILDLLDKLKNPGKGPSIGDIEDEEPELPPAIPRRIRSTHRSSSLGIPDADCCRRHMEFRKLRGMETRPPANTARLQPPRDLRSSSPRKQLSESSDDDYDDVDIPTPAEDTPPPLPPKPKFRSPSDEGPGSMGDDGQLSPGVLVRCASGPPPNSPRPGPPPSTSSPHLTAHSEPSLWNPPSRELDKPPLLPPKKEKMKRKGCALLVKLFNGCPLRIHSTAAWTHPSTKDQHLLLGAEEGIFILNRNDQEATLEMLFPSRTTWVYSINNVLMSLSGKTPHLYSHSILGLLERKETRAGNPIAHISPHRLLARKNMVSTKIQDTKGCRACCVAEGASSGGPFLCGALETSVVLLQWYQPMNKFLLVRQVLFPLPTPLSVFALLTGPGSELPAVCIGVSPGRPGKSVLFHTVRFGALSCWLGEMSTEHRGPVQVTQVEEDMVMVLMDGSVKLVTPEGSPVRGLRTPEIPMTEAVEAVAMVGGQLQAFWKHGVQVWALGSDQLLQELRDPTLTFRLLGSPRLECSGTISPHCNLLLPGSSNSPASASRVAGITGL
T1 sequence (Q96SW2 whole entry, looked up): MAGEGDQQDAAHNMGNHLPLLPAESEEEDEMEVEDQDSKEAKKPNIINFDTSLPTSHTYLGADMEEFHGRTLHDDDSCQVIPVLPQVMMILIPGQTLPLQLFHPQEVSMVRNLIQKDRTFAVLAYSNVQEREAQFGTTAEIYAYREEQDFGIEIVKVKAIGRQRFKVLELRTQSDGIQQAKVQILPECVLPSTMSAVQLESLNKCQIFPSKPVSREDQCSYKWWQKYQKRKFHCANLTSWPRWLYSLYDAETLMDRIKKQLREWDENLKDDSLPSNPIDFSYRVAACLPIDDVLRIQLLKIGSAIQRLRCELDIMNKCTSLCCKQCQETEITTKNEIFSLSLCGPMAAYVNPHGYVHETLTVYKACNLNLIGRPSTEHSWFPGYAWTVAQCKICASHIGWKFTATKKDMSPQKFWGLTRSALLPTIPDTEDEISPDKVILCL

in vivo [3] = conditions: female, Sprague-Dawley, rat, po, 2 mg/kg
[4] = Plasma protein binding in monkey at 10 uM incubated for 6 hrs by equilibrium dialysis based LC-MS/MS method; format: ADME, cell-free, Macaca mulatta; conditions: rhesus monkey, read-out: PPB (converted)
in vivo [5] = conditions: male, Sprague-Dawley, rat, po, 30 mg/kg
[6] = AUCinfinity in C57BL/6J mouse at 2 mg/kg, iv measured upto 24 hrs by LC-MS analysis; format: ADME, organism-based; conditions: in vivo
[7] = biological target: T1, Protein cereblon/Mitogen-activated protein kinase kinase kinase kinase 1; assay: PROTAC activity at CRBN/HPK1 in human Jurkat cells assessed as HPK1 degradation at 1 uM measured after 24 hrs by Western blotting analysis; format: cell-based
[8] = Toxicity in C57BL/6J mouse assessed as body weight loss at 0.1 to 0.5 mg/kg, po bid administered for 3 to 4 weeks; format: organism-based; conditions: in vivo, dose lower 0.1 mg/kg, time lower 3 weeks, dose upper 0.5 mg/kg, time upper 4 weeks
in vivo [9] = conditions: male, Sprague-Dawley, rat, po, 2 mg/kg
[10] = AUC(0 to 24 hrs) in female Sprague-Dawley rat at 2 mg/kg/day, po measured at day 1; format: ADME, organism-based; conditions: in vivo, time 1 day
[11] = Plasma protein binding in rat at 10 uM incubated for 6 hrs by equilibrium dialysis based LC-MS/MS method; format: ADME, cell-free; conditions: read-out: PPB (converted)
in vitro = conditions: dog, liver microsomes
MC-38 [12] = assay: Antitumor activity against mouse MC38 cells implanted in C57BL/6J mouse assessed as tumor weight inhibition rate at 0.5 mg/kg, po BID measured after 4 weeks; format: functional; set-up: scale not given: the % may be the effect or the level left
[13] = AUC(0 to 24 hrs) in male Sprague-Dawley rat at 2 mg/kg/day, po measured at day 1; format: ADME, organism-based; conditions: in vivo, time 1 day
[14] = Toxicity in C57BL/6J mouse assessed as change in body weight at 100 mg/kg, po qd measured after 28 days; format: organism-based; conditions: in vivo, 672 h, time 28 day
[15] = Tmax in male Sprague-Dawley rat at 2 mg/kg/day, po measured at day 14; format: ADME, organism-based; conditions: in vivo, time 14 day
[16] = Drug distribution in rat liver measured after 0.5 to 6 hrs; format: ADME, tissue-based; conditions: in vivo, time 0.5-6 hrs
MC-38 [17] = assay: Antitumor activity against mouse MC38 cells implanted in C57BL/6J mouse assessed as tumor growth inhibition at 0.1 mg/kg, po BID measured after 4 weeks; format: functional; conditions: MC-38, 672 h, read-out: TGI
[18] = Half-life in Beagle dog at 1 mg/kg, iv measured upto 24 hrs by LC-MS analysis; conditions: in vivo
[19] = Drug distribution in rat thyroid gland measured after 0.5 to 6 hrs; format: ADME, tissue-based; conditions: in vivo, time 0.5-6 hrs
in vivo [20] = conditions: female, Sprague-Dawley, rat, po, 30 mg/kg
[21] = Toxicity in C57BL/6J mouse assessed as change in body weight at 0.1 to 1 mg/kg, po bid measured after 28 days in presence of 5 mg/kg anti-PD1; format: organism-based; conditions: in vivo, 672 h, dose 0.1-1 mg/kg, time 28 day
MC-38 [22] = assay: Antitumor activity against mouse MC38 cells implanted in C57BL/6J mouse assessed as tumor weight inhibition rate at 0.1 mg/kg, po BID measured after 4 weeks; format: functional; set-up: scale not given: the % may be the effect or the level left
Cytochrome P450 2C8 = biological target: T2, Cytochrome P450 2C8 (Homo sapiens, UniProt P10632); assay: Inhibition of CYP2C8 in human liver microsomes using amodiaquine as substrate in presence of NADPH; format: ADME, Microsome
T2 sequence (P10632 whole entry): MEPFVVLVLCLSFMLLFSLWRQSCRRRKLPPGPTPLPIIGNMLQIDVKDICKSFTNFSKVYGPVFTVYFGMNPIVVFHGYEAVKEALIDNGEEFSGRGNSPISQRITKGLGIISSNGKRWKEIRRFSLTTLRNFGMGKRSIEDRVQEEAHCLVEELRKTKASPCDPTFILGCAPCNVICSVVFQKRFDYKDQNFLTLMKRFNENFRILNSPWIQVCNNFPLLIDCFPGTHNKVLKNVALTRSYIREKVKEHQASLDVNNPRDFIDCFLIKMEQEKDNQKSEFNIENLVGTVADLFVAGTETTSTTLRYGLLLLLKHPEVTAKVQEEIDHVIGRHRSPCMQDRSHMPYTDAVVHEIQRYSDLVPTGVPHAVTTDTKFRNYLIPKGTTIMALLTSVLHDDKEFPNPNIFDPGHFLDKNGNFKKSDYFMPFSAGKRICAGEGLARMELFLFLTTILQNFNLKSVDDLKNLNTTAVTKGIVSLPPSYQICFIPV

[23] = Initial plasma concentration in Beagle dog at 1 mg/kg, iv measured upto 24 hrs by LC-MS analysis; format: ADME, organism-based, Canis lupus familiaris; conditions: in vivo
[24] = Initial plasma concentration in C57BL/6J mouse at 2 mg/kg, iv measured upto 24 hrs by LC-MS analysis; format: ADME, organism-based
[25] = Tmax in Beagle dog at 5 mg/kg, po measured upto 24 hrs by LC-MS analysis; format: ADME, organism-based, Canis lupus familiaris; conditions: in vivo
[26] = Drug metabolism in mouse hepatocytes assessed as phase 2 metabolites formation at 10 uM incubated for 120 mins by UHPLC-UV/MS/MS method; format: ADME, cell-based, Hepatocyte; conditions: 2 h
in vivo [27] = conditions: male, Sprague-Dawley, rat, po, 30 mg/kg; remark: listed apart in the source
[28] = Metabolic stability in dog liver microsomes assessed as intrinsic clearance at 1 uM incubated for 45 mins by LC-MS/MS method; format: ADME, Canis lupus familiaris, Microsome; conditions: read-out: CLH
[29] = Toxicity in C57BL/6J mouse assessed as change in body weight at 100 mg/kg, po qd measured after 28 days in presence of 5 mg/kg anti-PD1; format: organism-based; conditions: in vivo, 672 h, time 28 day
Jurkat = assay: Induction of p-SLP76 at Ser376 protein degradation in human Jurkat cells incubated for 24 hrs by Western blotting analysis relative to control; format: cell-based
in vivo [30] = conditions: male, Sprague-Dawley, rat, po, 100 mg/kg
Cytochrome P450 2C19 = Cytochrome P450 2C19 (Homo sapiens, UniProt P33261); assay: Inhibition of CYP2C19 in human liver microsomes using S-mephenytoin as substrate in presence of NADPH; format: ADME, Microsome
Chain of Cytochrome P450 2C19 (P33261 whole entry): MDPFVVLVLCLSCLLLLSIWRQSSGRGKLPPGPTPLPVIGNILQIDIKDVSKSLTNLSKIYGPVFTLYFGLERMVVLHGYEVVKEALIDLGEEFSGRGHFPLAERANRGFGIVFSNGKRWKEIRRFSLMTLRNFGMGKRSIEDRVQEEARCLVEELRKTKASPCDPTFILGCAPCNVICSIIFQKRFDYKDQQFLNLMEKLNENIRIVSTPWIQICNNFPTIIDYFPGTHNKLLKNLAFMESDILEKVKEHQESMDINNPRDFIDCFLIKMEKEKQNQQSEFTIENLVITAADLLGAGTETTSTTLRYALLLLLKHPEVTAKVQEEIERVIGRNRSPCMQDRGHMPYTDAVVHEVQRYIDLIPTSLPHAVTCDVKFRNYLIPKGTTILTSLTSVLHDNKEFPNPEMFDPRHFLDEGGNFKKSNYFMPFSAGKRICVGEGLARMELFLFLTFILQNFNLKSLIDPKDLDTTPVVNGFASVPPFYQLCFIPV

MC-38 [31] = assay: Synergistic antitumor activity against mouse MC38 cells implanted in C57BL/6J mouse assessed as reduction in tumor weight at 0.5 mg/kg, po bid administered for 3 to 4 weeks in presence of 5 mg/kg anti-PD1 and measured twice a week (reference value: 1.79 +/- 0.24 g); format: functional; conditions: time 3-4 weeks

Vd [1]: 0.834 L/kg | Emax [2]: 94% | Cmax at 336 h (in vivo [3]): 140 ng/mL | fraction unbound at 6 h, 10 µM [4]: 0.0002 | Cmax at 24 h (in vivo [5]): 3560 ng/mL | AUC(0-inf) [6]: 5560 ng·h/mL | Activity [7]: Active | AUC at 336 h (in vivo [9]): 830 ng·h/mL | AUC(0-t) at 24 h [10]: 539 ng·h/mL | fraction unbound at 6 h, 10 µM [11]: 0.0008 | half-life at 0.75 h, 1 µM (in vitro): 68.3 min | AUC(0-t) at 24 h [13]: 1040 ng·h/mL | Tmax [15]: 10 h | Drug uptake [16]: Active | half-life at 24 h [18]: 292 min | Drug uptake [19]: Active | AUC at 336 h (in vivo [20]): 46000 ng·h/mL | pIC50 (Cytochrome P450 2C8): < 5.00 | C0 [23]: 794 ng/mL | C0 at 24 h [24]: 1590 ng/mL | Tmax [25]: 2.67 h | Drug metabolism [26]: metabolite_detected | Cmax at 336 h (in vivo [27]): 3200 ng/mL | microsomal CLint at 1 µM [28]: 20.3 µL/min/mg | Cmax at 336 h (in vivo [30]): 11100 ng/mL | pIC50 (Cytochrome P450 2C19): < 5.00
Compound: O=C1CCN(c2cc(C(=O)N3CCC(CC4CCN(c5ccc(-c6cnc7[nH]cc(-c8cnn(CC(F)(F)F)c8)c7n6)cn5)CC4)CC3)ccc2Cl)C(=O)N1
Activity [8]: Non-toxic | Activity (MC-38 [12]): 42.22% | Activity [14]: Non-toxic | inhibition in vivo at 0.1 mg/kg (MC-38 [17]): 28.5% | Activity [21]: Non-toxic | Activity (MC-38 [22]): 21.84% | Activity [29]: Non-toxic | Emax (Jurkat): 82.1% | Activity (MC-38 [31]): 0.24 g
